Results from patent publication US20100152197A1, “(4-TERT-BUTYLPIPERAZIN-2-YL)(PIPERAZIN-1-YL)METHANONE-N-CARBOXAMIDE DERIVATIVES” (ASTRAZENECA AB, priority 2008, published 2010).

Biological target: T1, CCR2 (Homo sapiens, UniProt P41597)
T1 construct: cell membranes containing 6×10^6cells/ml equivalent; endogenous in cells; host or cells: THP1 cells (membrane fragments)
T1 sequence (P41597 1-360 isoform P41597-2): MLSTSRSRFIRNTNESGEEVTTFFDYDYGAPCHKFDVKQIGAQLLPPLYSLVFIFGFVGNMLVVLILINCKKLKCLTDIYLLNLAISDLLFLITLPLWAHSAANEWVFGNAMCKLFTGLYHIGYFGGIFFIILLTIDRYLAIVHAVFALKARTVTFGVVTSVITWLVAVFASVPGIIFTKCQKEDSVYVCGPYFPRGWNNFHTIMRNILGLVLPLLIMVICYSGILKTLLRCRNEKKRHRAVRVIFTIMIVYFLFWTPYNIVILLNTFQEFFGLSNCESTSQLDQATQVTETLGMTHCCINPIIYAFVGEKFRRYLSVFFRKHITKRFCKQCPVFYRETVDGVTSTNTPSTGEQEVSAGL
Experiment: hMCP-1 THP1 receptor-binding assay (125I-labeled MCP-1, SPA, THP1 cell membranes)
Settings: 250 pM 125I-labeled MCP-1, THP1 cell membranes, room temperature 16 hours; read-out: CCR2 Binding pIC50 (converted)
Protocol: hMCP-1 THP1 Receptor-Binding Assay
i) Preparation of Membrane Fragments
THP1 cells were grown in RPMI (Sigma) supplemented with 10% foetal calf serum, 2 mM glutamine (Gibco), 100 units/ml Penicillin and 100 μg/ml Streptomycin (Invitrogen). Membrane fragments were prepared using cell lysis/differential centrifugation methods as described previously (Siciliano et al., 1990, J. Biol. Chem., 265, 19658). Protein concentration was estimated by BCA protein assay (Pierce, Rockford, Ill.) according to the manufacturer's instructions.
^125I-labeled MCP-1 was prepared using Bolton and Hunter conjugation (Bolton et al., 1973, Biochem. J., 133, 529; Amersham International plc).
Test compounds were dissolved in DMSO and further diluted in assay buffer (50 mM HEPES, 1 mM CaCl2, 5 mM MgCl2, 1 mM EDTA, 0.03% BSA, pH 7.2) to give a range of concentrations starting with a top final concentration of up to 10 μM. […] Incubations contained 250 pM ^125I-labeled MCP-1 (GE Healthcare), 0.5 mg Scintillation proximity assay beads (GE Healthcare RPNQ001) and cell membranes containing 6×10^6cells/ml equivalent. Non-specific binding was determined by the inclusion of 10 μM of a known CCR2b antagonist in the place of test compound. Total binding was determined in the presence of 1% DMSO without compound. Incubations were performed in sealed optiplates and kept at room temperature for 16 hours after which the plates were counted on a Packard TopCount (Packard TopCount™). Dose-response curves were generated using “in-house” data analysis package incorporating Origin software to determine IC50 values. Percent inhibitions were calculated for single concentrations of compound by using the following formula 100−((compound binding minus non-specific binding)/(total binding minus non-specific binding)×100).

Row | SMILES | IC50
1 | CC(C)(C)N1CCN[C@@H](C(=O)N2CCN(C(=O)Nc3cccc(C(F)(F)F)c3)CC2)C1 [Example 1, 4-[(2R)-4-tert-butylpiperazine-2-carbonyl]-N[3(trifluoromethyl)phenyl]piperazine-1-carboxamide] | 3.09 nM
2 | CC(C)(C)N1CCN[C@@H](C(=O)N2CCN(C(=O)Nc3cccc(Cl)c3)CC2)C1 [Example 2, 4-[(2R)-4-tert-butylpiperazine-2-carbonyl]-N-(3-chlorophenyl)piperazine-1-carboxamide] | 2.57 nM
3 | CC(C)(C)N1CCN[C@@H](C(=O)N2CCN(C(=O)Nc3cccc(SC(F)(F)F)c3)CC2)C1 [Example 3, 4-[(2R)-4-tert-butylpiperazine-2-carbonyl]-N-[3-(trifluoromethylsulfanyl)phenyl]piperazine-1-carboxamide] | 2.82 nM
4 | CC(C)(C)N1CCN[C@@H](C(=O)N2CCN(C(=O)Nc3ccc(Br)cc3)CC2)C1 [Example 4, N-(4-bromophenyl)-4-[(2R)-4-tert-butylpiperazine-2-carbonyl]piperazine-1-carboxamide] | 6.76 nM
5 | CC(C)(C)N1CCN[C@@H](C(=O)N2CCN(C(=O)Nc3ccc(F)c(C(F)(F)F)c3)CC2)C1 [Example 5, 4-[(2R)-4-tert-butylpiperazine-2-carbonyl]-N-[4-fluoro-3(trifluoromethyl)phenyl]piperazine-1-carboxamide] | 2 nM
6 | Cc1ccc(NC(=O)N2CCN(C(=O)[C@H]3CN(C(C)(C)C)CCN3)CC2)cc1C(F)(F)F [Example 6, 4-[(2R)-4-tert-butylpiperazine-2-carbonyl]-N-[4-methyl-3-(trifluoromethyl)phenyl]piperazine-1-carboxamide] | 1.82 nM
7 | CC(C)(C)N1CCN[C@@H](C(=O)N2CCN(C(=O)Nc3ccc(F)c(Cl)c3)CC2)C1 [Example 7, 4-[(2R)-4-tert-butylpiperazine-2-carbonyl]-N-(3-chloro-4-fluorophenyl)piperazine-1-carboxamide] | 8.51 nM
8 | CC(C)(C)N1CCN[C@@H](C(=O)N2CCN(C(=O)Nc3ccc(C#N)c(C(F)(F)F)c3)CC2)C1 [Example 8, 4-[(2R)-4-tert-butylpiperazine-2-carbonyl]-N-[4-cyano-3-(trifluoromethyl)phenyl]piperazine-1-carboxamide] | 7.24 nM
9 | CC(C)(C)N1CCN[C@@H](C(=O)N2CCN(C(=O)Nc3ccc(Cl)c(F)c3)CC2)C1 [Example 9, 4-[(2R)-4-tert-butylpiperazine-2-carbonyl]-N-(4-chloro-3-fluorophenyl)piperazine-1-carboxamide] | 2.57 nM
10 | CC(C)(C)N1CCN[C@@H](C(=O)N2CCN(C(=O)Nc3cccc(OC(F)(F)C(F)F)c3)CC2)C1 [Example 10, 4-[(2R)-4-tert-butylpiperazine-2-carbonyl]-N-[3-(1,1,2,2-tetrafluoroethoxy)phenyl]piperazine-1-carboxamide] | 6.76 nM
11 | Cc1cc(NC(=O)N2CCN(C(=O)[C@H]3CN(C(C)(C)C)CCN3)CC2)ccc1Cl [Example 11, 4-[(2R)-4-tert-butylpiperazine-2-carbonyl]-N-(4-chloro-3-methylphenyl)piperazine-1-carboxamide] | 2.29 nM
12 | CC(C)(C)N1CCN[C@@H](C(=O)N2CCN(C(=O)Nc3cccc(OCc4ccccc4)c3)CC2)C1 [Example 12, 4-[(2R)-4-tert-butylpiperazine-2-carbonyl]-N-(3-phenylmethoxyphenyl)piperazine-1-carboxamide] | 1.82 nM
13 | CC(C)(C)N1CCN[C@@H](C(=O)N2CCN(C(=O)Nc3ccc(OC(F)(F)F)c(Cl)c3)CC2)C1 [Example 13, 4-[(2R)-4-tert-butylpiperazine-2-carbonyl]-N-[3-chloro-4-(trifluoromethoxy)phenyl]piperazine-1-carboxamide] | < 0.871 nM
14 | Cc1nc(NC(=O)N2CCN(C(=O)[C@H]3CN(C(C)(C)C)CCN3)CC2)sc1Br [Example 14, N-(5-bromo-4-methyl-1,3-thiazol-2-yl)-4-[(2R)-4-tert-butylpiperazine-2-carbonyl]piperazine-1-carboxamide] | 2.75 nM
15 | CCc1nc(NC(=O)N2CCN(C(=O)[C@H]3CN(C(C)(C)C)CCN3)CC2)sc1Cl [Example 15, 4-[(2R)-4-tert-butylpiperazine-2-carbonyl]-N-(5-chloro-4-ethyl-1,3-thiazol-2-yl)piperazine-1-carboxamide] | < 0.447 nM
16 | Cc1nc(NC(=O)N2CCN(C(=O)[C@H]3CN(C(C)(C)C)CCN3)CC2)sc1Cl [Example 16, 4-[(2R)-4-tert-butylpiperazine-2-carbonyl]-N-(5-chloro-4-methyl-1,3-thiazol-2-yl)piperazine-1-carboxamide] | 1.26 nM
17 | CC(C)(C)N1CCN[C@@H](C(=O)N2CCN(C(=O)Nc3nc(C(F)(F)F)c(Cl)s3)CC2)C1 [Example 17, 4-[(2R)-4-tert-butylpiperazine-2-carbonyl]-N-[5-chloro-4-(trifluoromethyl)-1,3-thiazol-2-yl]piperazine-1-carboxamide] | < 0.447 nM
